In ChEMBL document CHEMBL1154466, “3D and quantum QSAR of non-benzodiazepine compounds” (Eur J Med Chem, 2008):
“And” between values parts separate entries of the source, which are not always exact repeats. Identical values can stand only once.

assay: Displacement of [3H]diazepam from benzodiazepine receptor

| Structure (SMILES) | pIC50 |
| --- | --- |
| CCCOc1cc2c(cn1)Cc1ccccc1-2 | 7.96 |
| CCOC(=O)c1cc2c(cn1)Cc1ccc(OCc3ccccc3)cc1-2 | 8.05 |
| COC(=O)c1cc2c(cn1)Cc1ccccc1-2 | 8.3 |
| CCOC(=O)c1ncc2c(c1CC)-c1cc(OCc3ccccc3)ccc1C2 | 7.66 |
| CCOC(=O)c1ncc2c(c1COC)-c1ccccc1C2 | 8.64 |
| O=[N+]([O-])c1cc2c(cn1)Cc1ccccc1-2 | 6.9 |
| Clc1cc2c(cn1)Cc1ccccc1-2 | 7.35 |
| Nc1cc2c(cn1)Cc1ccccc1-2 | 4.6 |
| COc1cc2c(cn1)Cc1ccccc1-2 | 6.91 |

Next, values leading:

| pIC50 | Structure (SMILES) |
| --- | --- |
| 7.62 | CCOc1cc2c(cn1)Cc1ccccc1-2 |
| 5.79 | c1ccc2c(c1)Cc1cnccc1-2 |
| 9.05 | CCOC(=O)c1ncc2c(c1COC)-c1cc(O)ccc1C2 |
| 8.1 | S=C=Nc1cc2c(cn1)Cc1ccccc1-2 |
| 9.3 | CCOC(=O)c1ncc2c(c1COC)-c1cc(OC)ccc1C2 |
| 9 | CCOC(=O)c1ncc2c(c1COC)-c1cc(OCc3ccccc3)ccc1C2 |
| 5.4 | Oc1cc2c(cn1)Cc1ccccc1-2 |
| 6.02 | CCOC(=O)c1ncc2c(c1COC)-c1cc(OCc3ccccc3)ccc1C2C (centres undefined) |

assay: Displacement of [3H]diazepam from benzodiazepine receptor in rat brain; format: tissue-based

| Structure (SMILES) | pIC50 |
| --- | --- |
| CN(C)c1ncnc2c1nc(Br)n2Cc1cccc(NC(=O)c2ccccc2)c1 | 5.1 |
| CN(C)c1ncnc2c1ncn2Cc1ccccc1F | 5.27 |
| CC(C)(C)C(=O)c1nccc2c1[nH]c1ccccc12 | 6.45 |
| CCOC(=O)c1cc2c(cn1)[nH]c1ccccc12 | 8.3 |
| Cc1nccc2c1[nH]c1ccccc12 [HARMAN] | 4.91 |
| CC(C)Oc1cc2c(cn1)[nH]c1ccccc12 | 6.29 |
| CN(C)c1ncnc2c1nc(Br)n2Cc1cccc(N)c1 | 6.96 |
| CC(C)(C)COc1nccc2c1[nH]c1ccccc12 | 7.02 |
| CN(C)c1ncnc2c1nc(N(C)C)n2Cc1cccc(N)c1 | 6.22 |
| COC(=O)c1cc2c(cn1)[nH]c1ccccc12 [BETA-CCM] | 8.3 |
| CN(C)c1ncnc2c1nc(N(C)C)n2Cc1cccc(NC=O)c1 | 6.96 |
| CCOc1cc2c(cn1)[nH]c1ccccc12 | 7.62 |
| c1ccc(COc2nccc3c2[nH]c2ccccc23)cc1 | 6 |
| CN(C)c1ncnc2c1nc(O)n2Cc1cccc(N)c1 | 5.74 |
| CNc1nc2c(N(C)C)ncnc2n1Cc1cccc(NC=O)c1 | 6.44 |
| CCCCOc1cc2c(cn1)[nH]c1ccccc12 | 7.01 |
| CCCOc1cc2c(cn1)[nH]c1ccccc12 | 7.96 |

| Structure (SMILES) | pIC50 |
| --- | --- |
| CN(C)c1ncnc2c1nc(Br)n2Cc1ccccc1 | 5.52 |
| CN(C)c1ncnc2c1ncn2Cc1cccc(F)c1 | 5.14 |
| CC(C)(C)OC(=O)c1cc2c3ccccc3nc-2c[nH]1 | 8 |
| CNc1nc2c(N(C)C)ncnc2n1Cc1cccc(N)c1 | 5.14 |
| CCc1nc(C(=O)OC)cc2c1[nH]c1ccccc12 | 5.12 |
| CN(C)c1ncnc2c1ncn2Cc1ccccc1 | 4.89 |
| CCCC(=O)c1cc2c(cn1)[nH]c1ccccc12 | 7.64 |
| CN(C)c1ncnc2c1ncn2Cc1ccccc1Cl | 4.89 |
| CN(C)c1ncnc2c1nc(Cl)n2Cc1cccc(N)c1 | 6.72 |
| COc1ccccc1Cn1cnc2c(N(C)C)ncnc21 | 4.7 |
| CCCCc1cc2c(cn1)[nH]c1ccccc12 | 6.64 |
| CC(=O)Nc1cccc(Cn2c(Br)nc3c(N(C)C)ncnc32)c1 | 6.08 |
| CN(C)c1ncnc2c1nc(N(C)C)n2Cc1ccccc1 | 5.24 |
| CN(C)c1ncnc2c1ncn2Cc1cccc(OC(=O)C(C)(C)C)c1 | 5.8 |
| c1ccc2c(c1)[nH]c1cnccc12 [NORHARMANE] | 5.79 |
| CN(C)c1ncnc2c1ncn2Cc1cccc(O)c1 | 5.92 |

More lines, now with the values ahead:

| pIC50 | Structure (SMILES) |
| --- | --- |
| 5.3 | CN(C)c1ncnc2c1ncn2Cc1cccc(CO)c1 |
| 4.77 | CNc1nc2c(N(C)C)ncnc2n1Cc1ccccc1 |
| 5.28 | COC(=O)Nc1cccc(Cn2c(Br)nc3c(N(C)C)ncnc32)c1 |
| 7.96 | CN(C)c1ncnc2c1nc(Br)n2Cc1cccc(NC=O)c1 |
| 6.12 | CC(C)(C)COC(=O)c1cc2c3ccccc3nc-2c[nH]1 |
| 6.89 | CN(C)c1ncnc2c1nc(O)n2Cc1cccc(NC=O)c1 |
| 6.33 | CCC(C)Oc1nccc2c1[nH]c1ccccc12 (centres undefined) |
| 7.03 | CC(C)COc1nccc2c1[nH]c1ccccc12 |
| 7.35 | Clc1cc2c(cn1)[nH]c1ccccc12 |
| 7.6 | CN(C)c1ncnc2c1nc(Br)n2Cc1cccc(NC(N)=O)c1 |
| 6.91 | COc1cc2c(cn1)[nH]c1ccccc12 |
| 7.47 | CN(C)c1ncnc2c1ncn2Cc1cccc(NC=O)c1 |
| 5.07 | Cc1nc2c(N(C)C)ncnc2n1Cc1ccccc1 |
| 6.27 | CC(C)CCOc1nccc2c1[nH]c1ccccc12 |
| 6 | COc1nc2c(N(C)C)ncnc2n1Cc1cccc(N)c1 |
| 6.9 | O=[N+]([O-])c1cc2c3ccccc3nc-2c[nH]1 |
| 6.36 | CC(=O)Oc1cccc(Cn2cnc3c(N(C)C)ncnc32)c1 |
| 6.05 | CN(C)c1ncnc2c1ncn2Cc1cccc(N)c1 |
| 5.27 | COc1nc2c(N(C)C)ncnc2n1Cc1ccccc1 |
| 5.82 | CN(C)c1ncnc2c1nc(Br)n2Cc1cccc(NS(C)(=O)=O)c1 |

assay: Displacement of [3H]flunitrazepam from benzodiazepine receptor in rat forebrain

| Structure (SMILES) | pIC50 |
| --- | --- |
| CCCc1c(SC)nc2nc(C(=O)c3ccccc3)cn2c1CC | 7.328 |
| CCc1c(OC)nc2nc(C(=O)c3ccccc3)cn2c1C [DIVAPLON] | 7.252 |
| CCc1c(SC)nc2nc(C(=O)c3ccccc3)cn2c1C | 7.921 |
| CCc1c(OC)nc2nc(C(=O)c3ccccc3)cn2c1CC | 6.971 |
| COc1nc2nc(C(=O)c3ccccc3)cn2c(C)c1CC1=CC1 | 7.523 and 7.347 |
| CSc1cc(C)n2cc(C(=O)c3ccccc3)nc2n1 | 6.721 |
| C=CCc1c(SC)nc2nc(C(=O)c3ccccc3)cn2c1C | 8.097 |
| CCCCc1cc(OC)nc2nc(C(=O)c3ccccc3)cn12 | 6.469 |
| COc1cc(C)n2cc(C(=O)c3ccccc3)nc2n1 | 6.097 |
| CCCc1cc(SC)nc2nc(C(=O)c3ccccc3)cn12 | 7.051 |
| CCCCc1c(OC)nc2nc(C(=O)c3ccccc3)cn2c1C | 7.377 |
| COc1nc2nc(C(=O)c3ccccc3)cn2c(C)c1OC | 6 |
| CCCc1c(OC)nc2nc(C(=O)c3ccccc3)cn2c1CC | 7.469 |

Second part, the compound after the results:

| pIC50 | Structure (SMILES) |
| --- | --- |
| 7.469 | CCCCc1c(OC)nc2nc(C(=O)c3ccccc3)cn2c1CC |
| 7.377 | CCc1c(CC2=CC2)c(OC)nc2nc(C(=O)c3ccccc3)cn12 |
| 5.824 | CCc1cn2cc(C(=O)c3ccccc3)nc2nc1OC |
| 7.071 | CCCc1c(OC)nc2nc(C(=O)c3ccccc3)cn2c1C |
| 6.53 | CCc1cc(OC)nc2nc(C(=O)c3ccccc3)cn12 |
| 6.272 | CCCc1cc(OC)nc2nc(C(=O)c3ccccc3)cn12 |
